Results from US9221795B2, “Phosphatidylinositol 3-kinase inhibitors” (Gilead Sciences, Inc., priority 2013, dated 2015).
pEC50, pIC50: −log10 of the molar value.

How the values were obtained:
PI3Kδ = PI3Kδ (Homo sapiens (Human), UniProt O00329); test: Enzymatic activity of PI3K isoforms, TR-FRET assay (PI3Kδ); format: biochemical; conditions: 2× Km ATP, geometric mean if more than one value
Method in brief: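 Recombinant heterodimeric PI3Kβ or PI3Kδ (25-50 pM) was run with 2 μM PIP2 and 2× Km ATP (75-500 μM) at pH 7.4, for 30 min at 25° C. PIP3 formation was detected by TR-FRET displacement of labeled PIP3 from Eu-GRP-1. IC50 values in nM come from four-parameter fits, as geometric means.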

PI3Kβ = PI3Kβ (Homo sapiens (Human), UniProt P42338); test: Enzymatic activity of PI3K isoforms, TR-FRET assay (PI3Kβ); format: biochemical; conditions: 2× Km ATP, geometric mean if more than one value
Chain of PI3Kβ (P42338 whole entry, the tested form may be a part, canonical isoform): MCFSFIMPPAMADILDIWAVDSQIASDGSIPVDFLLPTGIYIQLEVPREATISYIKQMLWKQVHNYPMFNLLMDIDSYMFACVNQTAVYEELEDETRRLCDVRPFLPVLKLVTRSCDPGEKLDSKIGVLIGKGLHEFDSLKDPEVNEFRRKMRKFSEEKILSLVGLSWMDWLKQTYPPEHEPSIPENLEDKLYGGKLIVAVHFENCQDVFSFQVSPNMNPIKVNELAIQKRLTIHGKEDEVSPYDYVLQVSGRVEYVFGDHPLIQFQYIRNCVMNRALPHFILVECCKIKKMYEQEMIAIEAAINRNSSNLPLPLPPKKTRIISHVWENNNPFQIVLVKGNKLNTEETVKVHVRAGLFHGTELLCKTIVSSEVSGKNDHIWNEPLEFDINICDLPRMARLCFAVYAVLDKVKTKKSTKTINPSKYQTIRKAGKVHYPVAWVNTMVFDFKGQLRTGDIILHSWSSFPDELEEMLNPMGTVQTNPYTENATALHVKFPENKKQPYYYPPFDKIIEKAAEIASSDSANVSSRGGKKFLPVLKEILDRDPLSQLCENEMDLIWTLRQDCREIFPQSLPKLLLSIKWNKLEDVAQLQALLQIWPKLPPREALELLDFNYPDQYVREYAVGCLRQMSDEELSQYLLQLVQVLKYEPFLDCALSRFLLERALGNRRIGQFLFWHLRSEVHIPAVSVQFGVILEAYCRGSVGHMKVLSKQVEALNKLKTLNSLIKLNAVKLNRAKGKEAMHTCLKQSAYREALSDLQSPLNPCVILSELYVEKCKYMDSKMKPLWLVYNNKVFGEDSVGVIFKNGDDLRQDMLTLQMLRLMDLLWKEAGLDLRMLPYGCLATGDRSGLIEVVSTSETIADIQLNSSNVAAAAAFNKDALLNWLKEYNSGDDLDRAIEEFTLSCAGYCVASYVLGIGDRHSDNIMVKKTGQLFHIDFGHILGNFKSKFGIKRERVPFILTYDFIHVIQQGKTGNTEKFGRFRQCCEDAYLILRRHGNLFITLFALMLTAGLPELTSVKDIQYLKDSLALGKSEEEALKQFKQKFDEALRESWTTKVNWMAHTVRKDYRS
Chain of PI3Kβ (P27986 whole entry partner, the tested form may be a part, canonical isoform): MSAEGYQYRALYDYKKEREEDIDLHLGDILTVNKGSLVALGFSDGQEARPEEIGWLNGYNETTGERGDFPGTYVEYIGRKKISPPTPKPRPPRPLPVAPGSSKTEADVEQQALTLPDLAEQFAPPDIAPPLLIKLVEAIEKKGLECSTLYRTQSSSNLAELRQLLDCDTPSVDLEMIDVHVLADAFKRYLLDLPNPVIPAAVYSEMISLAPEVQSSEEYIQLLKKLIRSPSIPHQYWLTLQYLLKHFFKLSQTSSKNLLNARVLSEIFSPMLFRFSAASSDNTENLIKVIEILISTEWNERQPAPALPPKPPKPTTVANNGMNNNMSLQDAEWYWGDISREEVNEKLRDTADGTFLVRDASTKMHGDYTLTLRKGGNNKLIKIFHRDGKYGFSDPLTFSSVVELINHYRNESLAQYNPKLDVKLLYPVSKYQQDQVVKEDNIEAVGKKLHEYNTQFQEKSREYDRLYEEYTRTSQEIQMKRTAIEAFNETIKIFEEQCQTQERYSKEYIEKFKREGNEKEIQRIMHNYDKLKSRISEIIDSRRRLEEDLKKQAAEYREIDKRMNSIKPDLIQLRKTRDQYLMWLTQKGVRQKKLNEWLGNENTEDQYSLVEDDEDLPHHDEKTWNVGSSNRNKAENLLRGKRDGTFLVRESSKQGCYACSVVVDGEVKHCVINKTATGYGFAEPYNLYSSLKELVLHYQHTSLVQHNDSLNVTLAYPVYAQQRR
Protocol: Enzymatic activity of the class I PI3K isoforms in the presence of the compounds of Table 1 and Compounds X, Y and Z was measured using a time-resolved fluorescence resonance energy transfer (TR-FRET) assay. The TR-FRET assay was used to monitor formation of the product 3,4,5-inositol triphosphate molecule (PIP3) as it competed with fluorescently labeled PIP3 for binding to the GRP-1 pleckstrin homology domain protein. An increase in […] product results in a decrease in TR-FRET signal as the labeled fluorophore is displaced from the GRP-1 protein binding site.
Class I PI3K isoforms were expressed and purified as heterodimeric recombinant proteins. All assay reagents and buffers for the TR-FRET assay were purchased from Millipore. PI3K isoforms were assayed under initial rate conditions in the presence of 25 mM Hepes (pH 7.4), and 2× Km ATP (75-500 μM), 2 μM PIP2, 5% glycerol, 5 mM MgCl2, 50 mM NaCl, 0.05% (v/v) Chaps, 1 mM dithiothreitol, 1% (v/v) DMSO at the following concentrations for each isoforms: PI3Kα, PI3Kβ, and PI3Kδ between 25 and 50 pM, and PI3Kγ at 2 nM. After an assay reaction time of 30 minutes at 25° C., reactions were terminated with a final concentration of 10 mM EDTA, 10 nM labeled-PIP3, and 35 nM Europium labeled GRP-1 detector protein before reading TR-FRET on an Envision plate reader (Ex: 340 nm; Em: 615/665 nm; […] delay and 500 μs read window).
Data were normalized based on positive ([…] wortmanin) and negative (DMSO) controls. α, β, δ, and γ IC50 values were calculated from the fit of the dose-response curves to a four-parameter equation. All IC50 values represent geometric mean values if more than one value was obtained. IC50 values were reported in units of nM.

basophils = test: Basophil activation in human whole blood (Flow2 CAST kit, CD63 flow cytometry); format: cell-based; conditions: Homo sapiens, human whole blood, basophils activated with anti-FcεRI mAb or fMLP, percent CD63 positive cells
[1] = Hepatocyte stability (parent drug disappearance in cryopreserved hepatocytes); format: in vitro ADME, human; conditions: human, cryopreserved human hepatocytes, human hepatocytes, 2 μM substrate, 37° C.
Protocol: This assay was used to evaluate the metabolic stability of test articles (TA) following incubation in cryopreserved hepatocytes by monitoring parent drug disappearance via LC/MC. The TA was incubated with 1 million hepatocytes/mL at 2 μM substrate in duplicate. The incubation was carried out at 37° C. with 5% CO2 and saturating humidity. Samples were taken at 0, 1, 2, and 4 hours to monitor the disappearance of TA and a half-life (t1/2) was determined. Table 3 below summarizes the human hepatocyte t1/2 values (hours) collected in the Example.

Chain of PI3Kδ (O00329 whole entry, canonical isoform): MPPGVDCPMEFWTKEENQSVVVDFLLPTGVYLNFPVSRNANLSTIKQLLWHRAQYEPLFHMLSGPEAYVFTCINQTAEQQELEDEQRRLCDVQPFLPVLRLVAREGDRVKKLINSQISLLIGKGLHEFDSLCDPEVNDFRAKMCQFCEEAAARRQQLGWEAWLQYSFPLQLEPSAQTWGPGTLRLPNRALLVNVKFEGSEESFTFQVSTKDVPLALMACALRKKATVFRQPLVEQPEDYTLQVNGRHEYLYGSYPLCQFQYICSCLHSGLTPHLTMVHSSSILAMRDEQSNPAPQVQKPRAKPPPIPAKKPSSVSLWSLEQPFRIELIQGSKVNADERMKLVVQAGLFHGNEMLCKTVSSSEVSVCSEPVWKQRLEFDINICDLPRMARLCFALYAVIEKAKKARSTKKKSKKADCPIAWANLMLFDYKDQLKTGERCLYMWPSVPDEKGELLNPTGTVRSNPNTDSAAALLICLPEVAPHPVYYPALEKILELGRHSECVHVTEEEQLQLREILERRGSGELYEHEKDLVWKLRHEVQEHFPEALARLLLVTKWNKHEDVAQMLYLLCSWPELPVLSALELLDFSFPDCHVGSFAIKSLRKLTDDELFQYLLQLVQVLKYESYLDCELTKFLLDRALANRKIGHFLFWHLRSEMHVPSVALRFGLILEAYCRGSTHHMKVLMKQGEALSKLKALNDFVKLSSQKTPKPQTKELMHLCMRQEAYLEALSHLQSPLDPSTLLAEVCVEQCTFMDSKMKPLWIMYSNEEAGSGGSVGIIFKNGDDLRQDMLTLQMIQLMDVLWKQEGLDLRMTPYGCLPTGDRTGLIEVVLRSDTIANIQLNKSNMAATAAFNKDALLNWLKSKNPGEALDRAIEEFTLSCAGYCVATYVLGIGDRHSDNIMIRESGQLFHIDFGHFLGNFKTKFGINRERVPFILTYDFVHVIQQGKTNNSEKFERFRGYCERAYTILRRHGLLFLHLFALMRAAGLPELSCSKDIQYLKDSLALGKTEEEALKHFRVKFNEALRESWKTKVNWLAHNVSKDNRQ
Chain of PI3Kδ (P27986 whole entry partner, canonical isoform): as the sequence (P27986 whole entry partner, the tested form may be a part, canonical isoform) above

Compound	pIC50 (PI3Kδ)	pIC50 (PI3Kβ)	pEC50 (basophils; class symbol)	pEC50 (basophils; geometric mean)	half-life at 2 μM ([1]; class symbol) [h]	half-life at 2 μM ([1]; Table 3) [h]
Cc1cc(N)ncc1-n1c([C@H](C)Nc2nc(N)nc(N)c2C#N)nc2cccc(Cl)c2c1=O (atropisomer, axis not shown) [Compound 93, (S)-2,4-diamino-6-((1-(3-(6-amino-4-methylpyridin-3-yl)-5-chloro-4-oxo-3,4-dihydroquinazolin-2-yl)ethyl)amino)pyrimidine-5-carbonitrile]	8.70	7.52				
Cc1cc(N)ncc1-n1c([C@@H](Nc2nc(N)nc(N)c2C#N)C2CC2)nc2c(Cl)ccc(Cl)c2c1=O (atropisomer, axis not shown) [Compound 98, (S)-2,4-diamino-6-(((3-(6-amino-4-methylpyridin-3-yl)-5,8-dichloro-4-oxo-3,4-dihydroquinazolin-2-yl)(cyclopropyl)methyl)amino)pyrimidine-5-carbonitrile]	7.68	6.80				
C[C@H](Nc1nc(N)nc(N)c1Cl)c1nc2c(Cl)ccc(Cl)c2c(=O)n1-c1ccc(N)nc1 [Compound 83, (S)-3-(6-aminopyridin-3-yl)-5,8-dichloro-2-(1-((2,6-diamino-5-chloropyrimidin-4-yl)amino)ethyl)quinazolin-4(3H)-one]	7.92	7.38				
C[C@H](Nc1nc(N)nc(N)c1Cl)c1nc2c(Cl)cc(F)cc2c(=O)n1-c1ccc(N)nc1 [Compound 81, (S)-3-(6-aminopyridin-3-yl)-8-chloro-2-(1-((2,6-diamino-5-chloropyrimidin-4-yl)amino)ethyl)-6-fluoroquinazolin-4(3H)-one]	7.08	6.74				
Cc1cc(N)ncc1-n1c([C@H](C)Nc2nc(N)nc(N)c2C#N)nc2c(Cl)ccc(Cl)c2c1=O (atropisomer, axis not shown) [Compound 95, (S)-2,4-diamino-6-((1-(3-(6-amino-4-methylpyridin-3-yl)-5,8-dichloro-4-oxo-3,4-dihydroquinazolin-2-yl)ethyl)amino)pyrimidine-5-carbonitrile]	8.40	7.55				
CCC[C@H](Nc1nc(N)nc(N)c1Cl)c1nc2cccc(Cl)c2c(=O)n1-c1ccc(N)nc1 [Compound 102, (S)-3-(6-aminopyridin-3-yl)-5-chloro-2-(1-((2,6-diamino-5-chloropyrimidin-4-yl)amino)butyl)quinazolin-4(3H)-one]	7.82	7.21				
Nc1ccc(-n2c([C@@H](Nc3nc(N)nc(N)c3Cl)C3CC3)nc3c(F)ccc(Cl)c3c2=O)cn1 [Compound 106, (S)-3-(6-aminopyridin-3-yl)-5-chloro-2-(cyclopropyl((2,6-diamino-5-chloropyrimidin-4-yl)amino)methyl)-8-fluoroquinazolin-4(3H)-one]	7.51	6.74				
C[C@H](Nc1nc(N)nc(N)c1C#N)c1nc2cccc(Cl)c2c(=O)n1-c1cncc(N)c1 [Compound 108, (S)-2,4-diamino-6-((1-(3-(5-aminopyridin-3-yl)-5-chloro-4-oxo-3,4-dihydroquinazolin-2-yl)ethyl)amino)pyrimidine-5-carbonitrile]	9.22	7.48				
Cc1cc(N)ncc1-n1c([C@@H](Nc2nc(N)nc(N)c2C#N)C2CC2)nc2c(Cl)ccc(Cl)c2c1=O (atropisomer, axis not shown) [Compound 99, (S)-2,4-diamino-6-(((3-(6-amino-4-methylpyridin-3-yl)-5,8-dichloro-4-oxo-3,4-dihydroquinazolin-2-yl)(cyclopropyl)methyl)amino)pyrimidine-5-carbonitrile]	6.19	5.44				
CCC[C@H](Nc1nc(N)nc(N)c1C#N)c1nc2cccc(Cl)c2c(=O)n1-c1ccc(N)nc1 [Compound 103, (S)-2,4-diamino-6-((1-(3-(6-aminopyridin-3-yl)-5-chloro-4-oxo-3,4-dihydroquinazolin-2-yl)butyl)amino)pyrimidine-5-carbonitrile]	9.00	8.52				
C[C@H](Nc1ncnc(N)c1C#N)c1nc2cccc(Cl)c2c(=O)n1-c1cncc(N)c1 [Compound 109, (S)-4-amino-6-((1-(3-(5-aminopyridin-3-yl)-5-chloro-4-oxo-3,4-dihydroquinazolin-2-yl)ethyl)amino)pyrimidine-5-carbonitrile]	8.70	6.34				
C[C@H](Nc1nc(N)nc(N)c1C#N)c1nc2ccc(F)c(Cl)c2c(=O)n1-c1ccc(N)nc1 [Compound 101, (S)-2,4-diamino-6-((1-(3-(6-aminopyridin-3-yl)-5-chloro-6-fluoro-4-oxo-3,4-dihydroquinazolin-2-yl)ethyl)amino)pyrimidine-5-carbonitrile]	8.10	7.96				
N#Cc1c(N)nc(N)nc1N[C@H](c1nc2c(F)ccc(Cl)c2c(=O)n1-c1cccnc1)C1CC1 [Compound 27, (S)-2,4-diamino-6-((5-chloro-8-fluoro-4-oxo-3-(pyridin-3-yl)-3,4-dihydroquinazolin-2-yl)(cyclopropyl)methylamino)pyrimidine-5-carbonitrile]	9.00		> 9.00	9.15	> 10	> 10
COc1cncc(-n2c([C@H](C)Nc3nc(N)nc(N)c3C#N)nc3cccc(Cl)c3c2=O)c1 [Compound 14, (S)-2,4-diamino-6-(1-(5-chloro-3-(5-methoxypyridin-3-yl)-4-oxo-3,4-dihydroquinazolin-2-yl)ethylamino)pyrimidine-5-carbonitrile]	8.40		8.00 to 9.00	8.52	6 to 10	8
C[C@H](Nc1nc(N)nc(N)c1C#N)c1nc2c(Cl)ccc(Cl)c2c(=O)n1-c1cncc(F)c1 [Compound 30, (S)-2,4-diamino-6-(1-(5,8-dichloro-3-(5-fluoropyridin-3-yl)-4-oxo-3,4-dihydroquinazolin-2-yl)ethylamino)pyrimidine-5-carbonitrile]	9.00		> 9.00	9.15	6 to 10	9
N#Cc1c(N)nc(N)nc1N[C@@H](CC1CC1)c1nc2c(F)ccc(Cl)c2c(=O)n1-c1cccnc1 [Compound 29, (S)-2,4-diamino-6-(1-(5-chloro-8-fluoro-4-oxo-3-(pyridin-3-yl)-3,4-dihydroquinazolin-2-yl)-2-cyclopropylethylamino)pyrimidine-5-carbonitrile]	8.10		7.30 to 8.00	8.00	> 10	> 10
N#Cc1c(N)nc(N)nc1N[C@H](c1nc2cccc(Cl)c2c(=O)n1-c1cncc(F)c1)C1CC1 [Compound 21, (S)-2,4-diamino-6-((5-chloro-3-(5-fluoropyridin-3-yl)-4-oxo-3,4-dihydroquinazolin-2-yl)(cyclopropyl)methylamino)pyrimidine-5-carbonitrile]	8.70		8.00 to 9.00	8.40	> 10	> 10
Cc1cccc2nc([C@H](C)Nc3nc(N)nc(N)c3C#N)n(-c3cncc(F)c3)c(=O)c12 [Compound 11, (S)-2,4-diamino-6-(1-(3-(5-fluoropyridin-3-yl)-5-methyl-4-oxo-3,4-dihydroquinazolin-2-yl)ethylamino)pyrimidine-5-carbonitrile]	9.10		> 9.00	9.30	3 to 6	5
N#Cc1c(N)nc(N)nc1N[C@H](c1nc2c(Cl)ccc(Cl)c2c(=O)n1-c1cccnc1)C1CC1 [Compound 28, (S)-2,4-diamino-6-(cyclopropyl(5,8-dichloro-4-oxo-3-(pyridin-3-yl)-3,4-dihydroquinazolin-2-yl)methylamino)pyrimidine-5-carbonitrile]	9.22		8.00 to 9.00	8.40	6 to 10	9
